Drawing on PubChem BioAssay (NCI), this text covers TGI for 15 compounds.

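48-hour exposure; five concentrations; linearly interpolated endpoints. TGI: total growth inhibition.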

Some test systems named below: SF-268 CNS; SK-OV-3 ovarian; OVCAR-3 ovarian; UACC-257 melanoma; LOX IMVI melanoma; NCI-H23 lung; HOP-62 NSCLC; RPMI-8226 leukemia; SNB-19 CNS.
Assay in all cases: growth of human tumour cells (NCI), 48 h

With `Cc1ccc(C(=O)O/N=C2/CCC/C2=C\c2ccccc2)cc1`, the TGI in the assay on SF-268 CNS, with SK-OV-3 ovarian, in the assay with OVCAR-3 ovarian, in the assay on UACC-257 melanoma, with LOX IMVI melanoma and with NCI-H23 lung was above 100 µM in each case. The TGI in the assay with HOP-62 NSCLC and with RPMI-8226 leukemia was above 100 µM each time.

As for `C=CCC1([C@H](C)[C@@H](OC(C)=O)c2cc(OC)c(OC)c(OC)c2)C[C@@H](OC)CCC1=O` (stereo partly drawn), the TGI with SF-268 CNS was 50.7 µM; with SK-OV-3 ovarian, above 100 µM; with OVCAR-3 ovarian, 50.5 µM; in the assay on NCI-H23 lung, 22.8 µM; in the assay on HOP-62 NSCLC, 85.3 µM; in the assay with RPMI-8226 leukemia it was 50.3 µM.

Turning to `CC(=O)NNc1nc(C)c(C(=O)NNC(=O)C(=O)Nc2ccccc2C#N)s1`, the TGI in the assay with SF-268 CNS, in the assay with SK-OV-3 ovarian, in the assay with OVCAR-3 ovarian, with SNB-19 CNS, in the assay with UACC-257 melanoma and in the assay on LOX IMVI melanoma was above 100 µM each time. Moreover, the TGI with NCI-H23 lung, in the assay with HOP-62 NSCLC and with RPMI-8226 leukemia was above 100 µM each time.

Turning to `CNS(=O)(=O)NN(C)S(=O)(=O)c1ccc(F)cc1`, the TGI in the assay on SF-268 CNS, in the assay on SK-OV-3 ovarian, in the assay with OVCAR-3 ovarian, in the assay with SNB-19 CNS, in the assay on UACC-257 melanoma and with LOX IMVI melanoma was above 100 µM in each case. Besides, the TGI with NCI-H23 lung, in the assay with HOP-62 NSCLC and in the assay on RPMI-8226 leukemia was above 100 µM each time.

Take `COc1ccccc1NC(=O)C1=C(C)NC(C)=C(C(=O)Nc2ccccc2OC)C1c1ccccc1F`: the TGI with SF-268 CNS, with SK-OV-3 ovarian, with OVCAR-3 ovarian, in the assay on SNB-19 CNS, in the assay on UACC-257 melanoma and in the assay on LOX IMVI melanoma was above 100 µM throughout. Besides, the TGI with NCI-H23 lung, in the assay with HOP-62 NSCLC and with RPMI-8226 leukemia was above 100 µM throughout.

`C[N+](C)(C)CC(=O)N/N=C(/Cc1nc2c3c(ccc2[nH]c1=O)C(=O)c1ccccc1C3=O)C(=O)Nc1ccc(Cl)c(Cl)c1`: the TGI in the assay on SF-268 CNS, in the assay on SK-OV-3 ovarian, in the assay on OVCAR-3 ovarian, in the assay with UACC-257 melanoma, with NCI-H23 lung and in the assay on HOP-62 NSCLC was above 100 µM each time. Further, the TGI in the assay with RPMI-8226 leukemia is above 100 µM.

Regarding `COc1cccc(NC(=O)CC(=O)N2N=C(N(CCC#N)c3ccc(Cl)cc3)CC2c2ccccc2)c1` (stereo not drawn), the TGI in the assay on SF-268 CNS, in the assay with SK-OV-3 ovarian, in the assay with OVCAR-3 ovarian, in the assay on SNB-19 CNS, in the assay on UACC-257 melanoma and with LOX IMVI melanoma was above 100 µM in each case. Also, the TGI in the assay on NCI-H23 lung, in the assay with HOP-62 NSCLC and in the assay with RPMI-8226 leukemia was above 100 µM in each case.

For `CCCc1[nH]nc(CCC(=O)N(Cc2ccccc2)Cc2ccccc2)c1CC`, the TGI in the assay with SF-268 CNS, in the assay with SK-OV-3 ovarian, with OVCAR-3 ovarian, with SNB-19 CNS, with UACC-257 melanoma and in the assay on LOX IMVI melanoma was above 100 µM in each case. Moreover, the TGI in the assay with NCI-H23 lung, in the assay on HOP-62 NSCLC and in the assay on RPMI-8226 leukemia was above 100 µM throughout.

For `COc1nc(NC2OCC(OC(C)=O)C(OC(C)=O)C2OC(C)=O)c(N=CC=Nc2c(NC3OCC(OC(C)=O)C(OC(C)=O)C3OC(C)=O)nc(OC)n(C)c2=O)c(=O)n1C` (stereo not drawn), the TGI in the assay with SF-268 CNS, in the assay on SK-OV-3 ovarian, with OVCAR-3 ovarian, with SNB-19 CNS, in the assay on UACC-257 melanoma and in the assay with LOX IMVI melanoma was above 100 µM throughout. For the same compound, the TGI in the assay on NCI-H23 lung, in the assay with HOP-62 NSCLC and in the assay on RPMI-8226 leukemia was above 100 µM in each case.

`CCCCCCCCCCCCOC(=S)NCCCC`: the TGI in the assay on SF-268 CNS is 58.1 µM; with SK-OV-3 ovarian, 71.1 µM; in the assay with SNB-19 CNS, above 100 µM; in the assay on UACC-257 melanoma, 44 µM; in the assay on LOX IMVI melanoma, 32 µM; with NCI-H23 lung, 57.9 µM. Moreover, the TGI in the assay on HOP-62 NSCLC is 73.4 µM; in the assay on RPMI-8226 leukemia, 34.2 µM.

On to `CC(=O)NC(CCCNCc1ccccc1)C(=O)NCc1ccccc1` (stereo not drawn), for which the TGI in the assay with SF-268 CNS, in the assay with SK-OV-3 ovarian, in the assay with OVCAR-3 ovarian, in the assay on SNB-19 CNS, with UACC-257 melanoma and with LOX IMVI melanoma was above 100 µM throughout. In addition, the TGI in the assay on NCI-H23 lung, with HOP-62 NSCLC and in the assay on RPMI-8226 leukemia was above 100 µM in each case.

`CCOC(=O)C1=C(C)N(Cc2ccccc2)C(C)=C(C(=O)OCC)C1c1ccccc1O`: the TGI was above 100 µM with SF-268 CNS; above 100 µM in the assay on SK-OV-3 ovarian; 90.8 µM with OVCAR-3 ovarian; above 100 µM with SNB-19 CNS; 70.7 µM in the assay with UACC-257 melanoma; 39.7 µM in the assay with LOX IMVI melanoma. Further, the results for the TGI in the assay with NCI-H23 lung and with HOP-62 NSCLC were 57.7 µM and 99.2 µM, respectively.

`CC(C)(C)OC(=O)C#CC[C@H]1CCCC1/C=C/C(O)=C1/C(=O)NC(CCCNC(=O)OC(C)(C)C)C1=O` (stereo partly drawn): the TGI in the assay on SF-268 CNS was 75.3 µM; with SK-OV-3 ovarian it was above 100 µM; in the assay with OVCAR-3 ovarian, above 100 µM; in the assay on SNB-19 CNS it was 88.5 µM; in the assay on UACC-257 melanoma, 61.4 µM; in the assay with LOX IMVI melanoma it was 40.2 µM. For the same compound, the TGI in the assay on NCI-H23 lung was 78.3 µM; in the assay with HOP-62 NSCLC, above 100 µM; with RPMI-8226 leukemia it was 84.5 µM.

On to `O=Cc1cn(C(=O)c2ccccc2)c2ccccc12`, for which the TGI in the assay with SK-OV-3 ovarian, with OVCAR-3 ovarian, in the assay with UACC-257 melanoma, with NCI-H23 lung, in the assay with HOP-62 NSCLC and with RPMI-8226 leukemia was above 100 µM each time.

Regarding `COc1cc2c(cc1OC)C(N(C)C)C(c1ccccc1)=C2Cl` (stereo not drawn), the TGI with SK-OV-3 ovarian was 45.9 µM; in the assay on OVCAR-3 ovarian, 40.8 µM; in the assay on SNB-19 CNS, above 100 µM; in the assay with UACC-257 melanoma it was 40.5 µM; in the assay with LOX IMVI melanoma it was 31.9 µM; in the assay with NCI-H23 lung it was 32.4 µM. The results for the TGI with HOP-62 NSCLC and in the assay on RPMI-8226 leukemia were 98.8 µM and 46.3 µM, respectively.
